Data as given in patent US11851431B2, “Tricyclic Janus kinase 1 inhibitors, and compositions and methods thereof” (LYNK PHARMACEUTICALS CO. LTD., priority 2018, dated 2023).
pIC50: −log10 of the molar value.

How the values were obtained:
[1] = molecular target: T1, TYK2 (Homo sapiens, UniProt P29597); test: JAK biochemical microfluidic assay (Caliper EZ Reader), TYK2; conditions: 1 mM ATP; head prints (2.5 nM)
T1 construct: purchased Carna Biosciences
Method: (§1) JAK activity was determined in the reaction buffer 50 mM HEPES, 0.01% Brij35, 10 mM MgCl2, 2 mM DTT by a microfluidic assay. The phosphorylation of a FAM labeled peptide substrate was monitored in the Caliper EZ Reader II (Perkin Elmer). The assay condition for each batch of enzyme (Carna Biosciences) was optimized to obtain 10% conversion rate of peptide substrate.
(§2) The test compounds were dissolved in DMSO to a stock concentration of 10 mM. Three-fold serially diluted compounds with top concentration of 5 μM were pre-incubated with JAK1, JAK2 or TYK2 for 10 min at ambient temperature. The final DMSO concentration of assay mixture was 1%. […] The reaction was stopped by adding 50 mM EDTA.
(§3) The percent inhibition was calculated by the following formula. % Inhibition=(Conversionmax−Conversionsample)/(Conversionmax−Conversionmin)*100 Conversionmax means the conversion rate in the positive well without addition of compound • […] means the conversion rate in the well without addition of enzyme • Conversionsample means the conversion rate of test compounds
(§4) The dose-response (percent inhibition) curve was plotted and IC50 values were determined by GraphPad software.

[2] = molecular target: T2, JAK2 (Homo sapiens, UniProt O60674); test: JAK biochemical microfluidic assay (Caliper EZ Reader), JAK2; conditions: 1 mM ATP; head prints (0.25 nM)
T2 construct: purchased Carna Biosciences
T2 sequence (O60674 whole entry): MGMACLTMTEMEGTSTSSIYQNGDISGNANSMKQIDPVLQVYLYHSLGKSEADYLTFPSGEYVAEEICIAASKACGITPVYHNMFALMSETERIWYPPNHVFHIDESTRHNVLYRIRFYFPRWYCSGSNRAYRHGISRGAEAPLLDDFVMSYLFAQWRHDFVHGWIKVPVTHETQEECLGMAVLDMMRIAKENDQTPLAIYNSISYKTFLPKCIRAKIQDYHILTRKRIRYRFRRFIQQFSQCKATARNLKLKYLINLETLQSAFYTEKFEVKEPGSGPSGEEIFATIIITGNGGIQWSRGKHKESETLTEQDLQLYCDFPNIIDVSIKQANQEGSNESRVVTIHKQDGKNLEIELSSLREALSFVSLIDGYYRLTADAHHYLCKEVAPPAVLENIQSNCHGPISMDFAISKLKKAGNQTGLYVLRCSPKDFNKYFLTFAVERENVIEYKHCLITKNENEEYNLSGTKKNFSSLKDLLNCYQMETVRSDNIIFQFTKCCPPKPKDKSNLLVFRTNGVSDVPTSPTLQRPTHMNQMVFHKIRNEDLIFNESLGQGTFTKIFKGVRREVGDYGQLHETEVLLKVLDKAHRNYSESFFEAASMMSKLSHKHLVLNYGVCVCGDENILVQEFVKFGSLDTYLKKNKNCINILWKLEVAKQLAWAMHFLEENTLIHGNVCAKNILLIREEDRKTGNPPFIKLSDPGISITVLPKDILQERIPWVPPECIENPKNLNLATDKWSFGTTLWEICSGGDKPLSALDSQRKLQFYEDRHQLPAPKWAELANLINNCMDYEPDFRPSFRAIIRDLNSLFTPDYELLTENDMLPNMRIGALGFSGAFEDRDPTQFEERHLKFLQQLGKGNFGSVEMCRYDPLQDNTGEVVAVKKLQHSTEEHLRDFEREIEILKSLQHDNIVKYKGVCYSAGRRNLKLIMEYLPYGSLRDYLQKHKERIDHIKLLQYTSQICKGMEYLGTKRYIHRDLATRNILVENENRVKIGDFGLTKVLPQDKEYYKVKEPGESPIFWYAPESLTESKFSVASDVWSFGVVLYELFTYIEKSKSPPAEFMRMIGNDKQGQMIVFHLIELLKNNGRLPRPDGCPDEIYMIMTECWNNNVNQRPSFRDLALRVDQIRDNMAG
Method: as §1, §2, §3, §4

[3] = molecular target: T3, JAK1 (Homo sapiens, UniProt P23458); test: JAK biochemical microfluidic assay (Caliper EZ Reader), JAK1; conditions: 1 mM ATP; head prints (5 nM)
T3 construct: purchased Carna Biosciences
T3 sequence (P23458 whole entry): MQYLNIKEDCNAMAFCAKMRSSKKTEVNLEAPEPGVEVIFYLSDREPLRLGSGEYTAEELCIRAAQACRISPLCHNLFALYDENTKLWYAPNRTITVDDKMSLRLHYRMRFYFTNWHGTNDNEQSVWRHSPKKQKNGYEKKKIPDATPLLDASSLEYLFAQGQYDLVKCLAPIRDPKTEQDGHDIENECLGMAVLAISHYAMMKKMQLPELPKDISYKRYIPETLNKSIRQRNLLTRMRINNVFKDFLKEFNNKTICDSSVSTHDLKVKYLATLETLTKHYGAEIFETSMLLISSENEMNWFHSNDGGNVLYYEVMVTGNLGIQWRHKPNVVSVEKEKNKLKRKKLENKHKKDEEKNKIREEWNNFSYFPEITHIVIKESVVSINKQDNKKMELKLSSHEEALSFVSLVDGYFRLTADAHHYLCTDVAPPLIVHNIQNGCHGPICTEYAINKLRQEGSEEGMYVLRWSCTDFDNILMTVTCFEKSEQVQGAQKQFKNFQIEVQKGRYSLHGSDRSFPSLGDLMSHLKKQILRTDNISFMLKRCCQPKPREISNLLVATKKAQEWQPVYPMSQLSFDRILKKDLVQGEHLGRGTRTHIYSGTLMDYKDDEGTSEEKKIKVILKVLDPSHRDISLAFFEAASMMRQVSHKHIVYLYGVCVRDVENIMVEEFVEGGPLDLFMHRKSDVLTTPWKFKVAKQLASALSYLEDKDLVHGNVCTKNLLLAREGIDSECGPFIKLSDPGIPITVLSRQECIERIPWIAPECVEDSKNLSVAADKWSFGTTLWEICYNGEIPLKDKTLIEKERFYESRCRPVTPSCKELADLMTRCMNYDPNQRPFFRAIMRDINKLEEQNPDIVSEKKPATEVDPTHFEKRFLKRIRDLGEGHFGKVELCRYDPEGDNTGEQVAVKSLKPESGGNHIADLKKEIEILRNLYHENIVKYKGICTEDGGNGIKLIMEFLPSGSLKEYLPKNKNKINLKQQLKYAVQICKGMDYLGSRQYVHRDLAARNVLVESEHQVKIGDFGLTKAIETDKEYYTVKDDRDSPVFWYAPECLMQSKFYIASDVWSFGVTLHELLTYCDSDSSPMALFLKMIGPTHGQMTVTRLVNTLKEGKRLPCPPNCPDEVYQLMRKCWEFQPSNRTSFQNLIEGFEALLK
Method: as §1, §2, §3, §4

[4] = tested on: BaF3-TEL-JAK1; test: Anti-proliferative assay, BaF3-TEL-JAK1 cells; assay type: cell-based; conditions: 72 h, Cell-Titer Glo
Method: (§5) Dimerization domain of Tel protein fused with JAK kinase domain was permanently transduced into BaF3 cells, whose proliferation is dependent on JAK activity in the absence of IL-3 induction. These engineered BaF3-Tel-JAK cells were used to monitor JAK inhibitory activities of the compounds in the cellular.
(§6) BaF3-Tel-JAK cells were cultured in RPMI-1640 (Corning) containing 10% fetal bovine serum. Cells were seeded at 2000/well of white flat bottom 96-well plates. The well containing medium only was used as background control. After 24h growth, cells were treated with compounds. The test compounds were dissolved in DMSO to a stock concentration of 10 mM. 3-fold serially diluted compounds for 9 concentrations with top concentration of 10 μM was added into the each well. The final DMSO concentration was 0.2%. The cells continued to grow at 37° C. in 5% CO2 for 72 h after compound treatment. The viability was measured by cellular ATP determination using the Cell-Titer Glo luciferase reagent (Promega). The Luminescence value was recorded by a multi-label reader Envision (PerkinElmer). Values were transformed to percent inhibition using the following formula. % Inhibition=(Readoutmax−Readoutsample)/(Readoutmax−Readoutmin)*100
(§7) The well without compound but with equivalent DMSO was defined as Readout max
(§8) The well with only medium and equivalent DMSO was defined as Readout min
(§9) The dose-response (percent inhibition) curve was plotted and GI50 values (the concentration that causes 50% growth inhibition) were determined by GraphPad software.

[5] = tested on: BaF3-TEL-JAK2; test: Anti-proliferative assay, BaF3-TEL-JAK2 cells; assay type: cell-based; conditions: 72 h, Cell-Titer Glo
Method: as §5, §6, §7, §8, §9

T1 sequence (P29597 whole entry): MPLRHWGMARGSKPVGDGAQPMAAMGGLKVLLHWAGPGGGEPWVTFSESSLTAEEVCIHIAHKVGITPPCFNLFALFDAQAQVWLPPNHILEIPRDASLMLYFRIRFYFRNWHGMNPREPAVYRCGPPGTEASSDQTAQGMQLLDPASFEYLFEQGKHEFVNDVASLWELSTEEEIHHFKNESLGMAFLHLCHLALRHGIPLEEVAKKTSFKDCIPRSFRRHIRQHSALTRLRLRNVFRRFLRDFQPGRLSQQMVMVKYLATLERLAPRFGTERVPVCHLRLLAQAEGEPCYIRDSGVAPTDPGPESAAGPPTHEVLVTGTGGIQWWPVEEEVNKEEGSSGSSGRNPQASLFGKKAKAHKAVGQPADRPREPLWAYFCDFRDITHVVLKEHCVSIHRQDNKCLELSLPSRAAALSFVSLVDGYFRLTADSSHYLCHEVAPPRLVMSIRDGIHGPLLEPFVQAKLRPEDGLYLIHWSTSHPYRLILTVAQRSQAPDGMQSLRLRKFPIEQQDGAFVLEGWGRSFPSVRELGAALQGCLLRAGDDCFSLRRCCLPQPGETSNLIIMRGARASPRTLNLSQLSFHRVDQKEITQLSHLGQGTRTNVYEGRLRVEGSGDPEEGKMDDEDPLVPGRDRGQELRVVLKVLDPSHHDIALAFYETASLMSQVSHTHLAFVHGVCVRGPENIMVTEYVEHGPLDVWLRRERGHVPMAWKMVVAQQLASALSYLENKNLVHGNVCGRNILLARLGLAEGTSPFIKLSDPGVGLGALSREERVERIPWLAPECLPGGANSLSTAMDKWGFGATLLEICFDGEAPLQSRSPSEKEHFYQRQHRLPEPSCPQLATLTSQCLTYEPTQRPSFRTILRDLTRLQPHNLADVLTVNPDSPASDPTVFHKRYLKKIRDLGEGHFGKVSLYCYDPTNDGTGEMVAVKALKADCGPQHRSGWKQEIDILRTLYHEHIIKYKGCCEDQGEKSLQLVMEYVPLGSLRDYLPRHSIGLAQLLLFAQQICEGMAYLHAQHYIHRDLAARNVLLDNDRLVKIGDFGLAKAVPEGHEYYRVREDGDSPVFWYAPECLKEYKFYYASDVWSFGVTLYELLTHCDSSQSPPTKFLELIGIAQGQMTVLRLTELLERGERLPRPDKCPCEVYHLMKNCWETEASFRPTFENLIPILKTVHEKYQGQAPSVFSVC

SMILES | pIC50 [1] | pIC50 [2] | pIC50 [3] | GI50 [4] [nM] | GI50 [5] [nM]
O=S(=O)(CC1CC(F)(F)C1)NC12CC(n3cnc4cnc5[nH]ccc5c43)(C1)C2 [Example 46, 1-(3,3-Difluorocyclobutyl)-N-(3-(imidazo[4,5-d]pyrrolo[2,3-b]pyridin-1(6H)-yl)bicyclo[1.1.1]pentan-1-yl)methanesulfonamide] | 6.97 | 7.11 | 8.66 | 14.2 | 133
O=S(=O)(NC12CC(n3cnc4cnc5[nH]ccc5c43)(C1)C2)C1CC1 [Example 7, N-(3-(imidazo[4,5-d]pyrrolo[2,3-b]pyridin-1(6H)-yl)bicyclo[1.1.1]pentan-1-yl)cyclopropanesulfonamide] | 6.24 | 6.33 | 7.34 | – | –
CCCS(=O)(=O)N[C@H]1C[C@@H](n2cnc3cnc4[nH]ccc4c32)C1 [Example 2, N-(Cis-3-(imidazo[4,5-d]pyrrolo[2,3-b]pyridin-1(6H)-yl)cyclobutyl)propane-1-sulfonamide] | 5.55 | 5.96 | 7.16 | 352 | 2300
CCCS(=O)(=O)N[C@H]1C[C@H](n2cnc3cnc4[nH]ccc4c32)C1 [Example 3, N-(trans-3-(imidazo[4,5-d]pyrrolo[2,3-b]pyridin-1(6H)-yl)cyclobutyl)propane-1-sulfonamide] | 5.44 | 5.81 | 6.72 | 1090 | 2540
O=S(=O)(NC12CC(n3cnc4cnc5[nH]ccc5c43)(C1)C2)c1ccc(Cl)cc1 [Example 28, 4-Chloro-N-(3-(imidazo[4,5-d]pyrrolo[2,3-b]pyridin-1(6H)-yl)bicyclo[1.1.1]pentan-1-yl)benzenesulfonamide] | 6.38 | 6.59 | 8.17 | 51 | 286
N#CC1CCN(S(=O)(=O)NC23CC(n4cnc5cnc6[nH]ccc6c54)(C2)C3)C1 (stereo not drawn) [Example 20, 3-Cyano-N-(3-(imidazo[4,5-d]pyrrolo[2,3-b]pyridin-1(6H)-yl)bicyclo[1.1.1]pentan-1-yl)pyrrolidine-1-sulfonamide] | 6.70 | 6.48 | 8.08 | – | –

The next lines start with the values.

pIC50 [1] | pIC50 [2] | pIC50 [3] | GI50 [4] [nM] | GI50 [5] [nM] | SMILES
5.54 | 6.33 | 7.37 | – | – | CC(C)(C)OC(=O)NC12CC(n3cnc4cnc5[nH]ccc5c43)(C1)C2 [Example 1i, Tert-butyl (3-(imidazo[4,5-d]pyrrolo[2,3-b]pyridin-1(6H)-yl)bicyclo[1.1.1]pentan-1-yl)carbamate]
6.95 | 6.84 | 8.26 | 10 | 380 | CC(C)CS(=O)(=O)NC12CC(n3cnc4cnc5[nH]ccc5c43)(C1)C2 [Example 5, N-(3-(imidazo[4,5-d]pyrrolo[2,3-b]pyridin-1(6H)-yl)bicyclo[1.1.1]pentan-1-yl)-2-methylpropane-1-sulfonamide]
– | 7.02 | 8.07 | 99.6 | 1000 | O=C(NCC(F)(F)F)NC12CC(n3cnc4cnc5[nH]ccc5c43)(C1)C2 [Example 41, 1-(3-(Imidazo[4,5-d]pyrrolo[2,3-b]pyridin-1(6H)-yl)bicyclo[1.1.1]pentan-1-yl)-3-(2,2,2-trifluoroethyl)urea]
5.98 | 6.22 | 7.61 | – | – | COCCS(=O)(=O)NC12CC(n3cnc4cnc5[nH]ccc5c43)(C1)C2 [Example 6, N-(3-(imidazo[4,5-d]pyrrolo[2,3-b]pyridin-1(6H)-yl)bicyclo[1.1.1]pentan-1-yl)-2-methoxyethanesulfonamide]
– | 6.78 | 7.73 | 120 | 291 | O=C(CCC(F)(F)F)NC12CC(n3cnc4cnc5[nH]ccc5c43)(C1)C2 [Example 18, 4,4,4-Trifluoro-N-(3-(imidazo[4,5-d]pyrrolo[2,3-b]pyridin-1(6H)-yl)bicyclo[1.1.1]pentan-1-yl)butanamide]
